How the values were obtained:
[1] = target: T1, 3H-noradrenaline (NA) uptake in hippocampal synaptosomes (Rattus norvegicus, UniProt Q63380); assay: In vitro inhibition of 3H-noradrenaline (3H-NA) uptake in hippocampal synaptosomes; type: biochemical, rat (male Wistar)
T1 construct: Hippocampi from male Wistar rats (150-200 g); from tissue; host or cells: hippocampus of male Wistar rats, crude synaptosomal P2 fraction
From the text: (§1) Specific neurotransmitter transporters/uptake sites on nerve terminals presumably function to terminate neuronal signaling by removing the neurotransmitters dopamine, noradrenaline and serotonin, respectively, from the synaptic cleft. The activity of the transporter integral proteins can be measured in vitro by synaptosomal uptake of ^3 H-dopamine, ^3 H-noradrenaline and ^3 H-serotonine, respectively.
In vitro Inhibition of ^3 H-noradrenaline (^3 H-NA) Uptake in Hippocampal Synaptosomes
(§2) Tissue preparation: Preparations are performed at 0-4° C. unless otherwise indicated. Hippocampi from male Wistar rats (150-200 g) are homogenized for 5-10 sec in 100 volumes of ice-cold 0.32M sucrose containing 1 mM pargyline using an Ultra-Turrax homogenizer. Monoamine oxidase activity will be inhibited in the presence of pargyline. The homogenate is centrifuged at 1000×g for 10 min. […]
(§3) Assay: Aliquots of 4.0 ml tissue suspension are added to 100 μl of test solution and 100 μl of ^3 H-NA (1 nM, final concentration), mixed and incubated for 90 min at 37° C. Non-specific uptake is determined using desipramine (1 μM, final concentration). […] The amount of radioactivity on the filters is determined by conventional liquid scintillation counting. Specific uptake is calculated as the difference between total uptake and non-specific uptake. […]

[2] = target: T2, 3H-dopamine (DA) uptake in striatal synaptosomes (Rattus norvegicus, UniProt P23977); assay: In vitro inhibition of 3H-dopamine (3H-DA) uptake in striatal synaptosomes; type: biochemical, rat (male Wistar)
T2 construct: Corpi striati from male Wistar rats (150-200 g); from tissue; host or cells: corpus striatum of male Wistar rats, crude synaptosomal P2 fraction
T2 sequence (P23977 whole entry): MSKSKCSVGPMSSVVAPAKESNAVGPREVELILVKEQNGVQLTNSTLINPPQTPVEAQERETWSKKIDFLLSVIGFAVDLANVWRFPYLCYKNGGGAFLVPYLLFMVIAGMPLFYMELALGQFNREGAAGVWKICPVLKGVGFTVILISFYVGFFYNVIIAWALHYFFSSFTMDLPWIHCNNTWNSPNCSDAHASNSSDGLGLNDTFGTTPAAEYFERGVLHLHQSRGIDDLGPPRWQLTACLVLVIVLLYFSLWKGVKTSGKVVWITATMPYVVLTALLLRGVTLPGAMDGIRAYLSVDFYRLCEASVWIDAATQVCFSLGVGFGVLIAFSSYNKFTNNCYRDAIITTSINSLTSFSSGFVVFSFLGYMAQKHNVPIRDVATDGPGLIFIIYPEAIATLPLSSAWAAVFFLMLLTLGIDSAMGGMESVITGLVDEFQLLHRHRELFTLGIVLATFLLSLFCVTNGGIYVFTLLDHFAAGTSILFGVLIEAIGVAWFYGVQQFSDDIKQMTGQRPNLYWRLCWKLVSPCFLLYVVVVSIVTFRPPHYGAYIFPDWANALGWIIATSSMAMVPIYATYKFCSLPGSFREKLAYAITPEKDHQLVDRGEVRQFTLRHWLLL
From the text: as §1
In vitro Inhibition of ^3 H-dopamine (^3 H-DA) Uptake in Striatal Synaptosomes
as §2, with “preparations:” for “preparation:”, “Corpi striati” for “Hippocampi”
as §3, with “H-DA” for “H-NA”, “25” for “90”, “benztropine (10” for “desipramine (1”

[3] = system: mice (immobility time, tail suspension); assay: Tail suspension test for antidepressant activity (immobility time); type: in vivo, mouse (female NMRI); settings: Mus musculus, 0.5 h, oral, 30 min before test, 6 min observation, graphical interpolation from at least 3 doses, read-out: ED50 (dose reducing the immobility to 100 sec)
Experimental: A decrease in the immobility time by mice suspended in their tail is seen after systemic administration of central stimulants and by antidepressants (Steru, L., Chermat, R., Thierry, B. & Simon, P. (1985) The tail suspension test: A new method for screening antidepressants in mice. Psychopharmacology 85:367-370.).
Female NMRI mice (20-25 g) habituated to the room (12 hours light/dark) for at least 16 hours and housed 25 per cage are used. The mice are suspended by the tail with adhesive tape to a rod 30 cm above the lab. bench 30 min after an oral administation of vehicle or drug. For the next 6 min the accumulated duration of immobility defined as no movements by the body or extremities (however head movements are not defined as movements) are noted. Six mice per dose are used.
Saline or vehicle treated mice have immobility time scores between 160-180 sec in average. An ED50 -value is calculated by graphical interpolation from at least 3 doses as the dose reducing the immobility to 100 sec.

[4] = target: T3, 3H-5-hydroxytryptamine (5-HT, serotonin) uptake in cortical synaptosomes (Rattus norvegicus, UniProt P31652); assay: In vitro inhibition of 3H-5-hydroxytryptamine (3H-5-HT, serotonin) uptake in cortical synaptosomes; type: biochemical, rat (male Wistar)
T3 construct: Cerebral cortices from male Wistar rats (150-200 g); from tissue; host or cells: cerebral cortex of male Wistar rats, crude synaptosomal P2 fraction
T3 sequence (P31652 whole entry): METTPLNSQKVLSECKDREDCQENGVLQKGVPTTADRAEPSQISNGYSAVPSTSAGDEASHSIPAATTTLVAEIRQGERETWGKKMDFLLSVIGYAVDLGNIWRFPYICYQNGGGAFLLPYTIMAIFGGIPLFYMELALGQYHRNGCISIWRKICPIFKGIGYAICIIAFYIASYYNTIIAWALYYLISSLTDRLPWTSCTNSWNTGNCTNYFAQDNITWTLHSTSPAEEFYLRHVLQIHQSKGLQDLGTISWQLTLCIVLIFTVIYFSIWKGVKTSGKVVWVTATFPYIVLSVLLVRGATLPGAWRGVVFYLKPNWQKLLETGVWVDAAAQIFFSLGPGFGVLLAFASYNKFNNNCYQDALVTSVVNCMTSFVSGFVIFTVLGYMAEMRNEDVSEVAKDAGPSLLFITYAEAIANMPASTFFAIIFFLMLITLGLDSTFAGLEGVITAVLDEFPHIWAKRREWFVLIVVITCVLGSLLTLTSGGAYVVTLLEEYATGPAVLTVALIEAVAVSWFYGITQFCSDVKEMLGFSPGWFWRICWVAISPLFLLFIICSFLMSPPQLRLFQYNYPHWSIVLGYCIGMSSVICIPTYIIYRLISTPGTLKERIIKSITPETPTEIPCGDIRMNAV
From the text: as §1
In vitro Inhibition of ^3 H-5-hydroxytryptamine (^3 H-5-HT, serotonin) Uptake in Cortical Synaptosomes
as §2, with “Cerebral cortices” for “Hippocampi”
as §3, with “H-5-HT” for “H-NA”, “30” for “90”, “citalopram” for “desipramine”

T1 sequence (Q63380 1-617): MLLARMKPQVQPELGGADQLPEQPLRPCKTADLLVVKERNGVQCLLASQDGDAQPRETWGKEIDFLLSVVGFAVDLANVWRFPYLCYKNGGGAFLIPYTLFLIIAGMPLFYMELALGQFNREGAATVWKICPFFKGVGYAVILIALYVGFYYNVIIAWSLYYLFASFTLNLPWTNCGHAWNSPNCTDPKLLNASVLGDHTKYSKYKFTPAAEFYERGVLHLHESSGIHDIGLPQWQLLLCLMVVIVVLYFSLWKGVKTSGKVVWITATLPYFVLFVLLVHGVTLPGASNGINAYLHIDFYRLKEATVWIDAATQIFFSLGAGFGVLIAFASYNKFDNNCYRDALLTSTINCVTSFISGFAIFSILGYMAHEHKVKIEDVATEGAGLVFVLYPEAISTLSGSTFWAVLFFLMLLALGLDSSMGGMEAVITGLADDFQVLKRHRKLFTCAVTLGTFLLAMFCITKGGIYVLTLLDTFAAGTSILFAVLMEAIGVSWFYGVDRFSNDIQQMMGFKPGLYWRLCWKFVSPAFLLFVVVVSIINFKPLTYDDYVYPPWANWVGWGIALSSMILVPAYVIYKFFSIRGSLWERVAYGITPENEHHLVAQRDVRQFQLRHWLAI

Work on `CN1C2C=C(c3ccc(Cl)c(Cl)c3)CC1CC2` (racemic) [(±)-3-(3,4-Dichlorophenyl)-8-methyl-8-azabicyclo[3.2.1]oct-2-ene] yielded an IC50 [1] of 26 nM, an IC50 [2] of 79 nM and an ED50 [3] of 0.96 mg/kg. For the same compound, the IC50 [4] was 4.7 nM.

— patent publication US6100275A, “8-azabicyclo[3.2.1.]oct-2-ene derivatives, their preparation and use” (Neurosearch A/S, priority 1995, dated 2000)
